Square brackets hold non-standard residues; d marks the D form. Ends that are not written are not given here. pY = N[C@@H](Cc1ccc(OP(=O)(O)O)cc1)C(=O)O
Assays:
[1] = test system: P. aeruginosa strain 6206; type: cell-based; details: Pseudomonas aeruginosa, 3 h, 200 μg/ml
Procedure: (§1) Antimicrobial activity against Pseudomonas aeruginosa clinical and laboratory isolates, as well as ATCC strains of Escherichia coli, Enterococcus faecalis, Serratia marcescens, Staphylococcus epidermidis, Staphylococcus aureus, Streptococcus pyogenes and Candida albicans (˜10^6 cfu/ml each) were evaluated by viable counts at 3 h. Protection against bacterial invasion (quantified by gentamicin survival) and cytotoxicity (trypan blue staining) were assessed using fresh TiHCE cells inoculated with P. aeruginosa clinical isolates 6294 (invasive, ˜10^6 cfu for 2 h) or 6206 (cytotoxic, ˜10^4 cfu for 3 h). Peptide binding and membrane permeabilization by hKRT6A 19mer was determined by N-terminal TAMRA-tagged peptides (110 μM) and an impermeant SYTOX blue nucleic acid stain (5 μM; Invitrogen).
(§2) For antimicrobial spectrum analysis, Escherichia coli (ATCC 25922), Enterococcus faecalis (ATCC 51188), Serratia marcescens (ATCC 43862), Staphylococcus epidermidis (ATCC 12228), Staphylococcus aureus (ATCC 29213), Streptococcus pyogenes (ATCC 19615) and Candida albicans (ATCC 90028) were used. […] Starting inoculum at a concentration of ˜10^8 cfu/ml was prepared fresh by suspending bacteria in KBM media (Lonza) until OD650 reading is ˜0.1. […]

[2] = test system: P. aeruginosa clinical isolate 6294; type: cell-based; details: Pseudomonas aeruginosa, 3 h, 200 μg/ml
Procedure: (§3) Crude lysates of media-treated and human tear fluid-treated cells were collected by freeze-thawing in KBM or saline (for assays) or 10 mM Tris-HCl (pH 8.5) (for mass spectrometry). Serial fractionation of lysates was performed using centrifugal filters with cutoffs at ˜100, ˜10 and ˜3 kDa (Millipore). […] Synthetic peptides of hKRT6A were obtained from Biomatik at a purity of >95%. Antimicrobial activity against Pseudomonas aeruginosa clinical and laboratory isolates, as well as ATCC strains of Escherichia coli, Enterococcus faecalis, Serratia marcescens, Staphylococcus epidermidis, Staphylococcus aureus, Streptococcus pyogenes and Candida albicans (˜10^6 cfu/ml each) were evaluated by viable counts at 3 h. […] Statistical analysis between two groups was performed using Student's t-Test.
(§4) Pseudomonas aeruginosa corneal clinical isolates 6294 (invasive) and 6206 (cytotoxic), cystic fibrosis clinical isolate 2192, laboratory strains PAO1 (invasive), PA14 (cytotoxic), PAC1R and its series of isogenic LPS mutants (PAC1R algC-, 557, 605, 611) were used in this study. […] Starting inoculum at a concentration of ˜10^8 cfu/ml was prepared fresh by suspending bacteria in KBM media (Lonza) until OD650 reading is ˜0.1. […]

laboratory strain PAO1 = experiment: Antimicrobial activity assay (viable counts at 3 h); type: cell-based, Pseudomonas aeruginosa; details: after 3 h, 200 μg/ml in 0.9% NaCl
Procedure: as §3, §4

laboratory strain PA14 = experiment: as above; type: cell-based, Pseudomonas aeruginosa; details: 200 μg/ml (FIG. 2D)
Procedure: as §3, §4

[3] = test system: P. aeruginosa clinical isolate 6206 cytotoxicity to TiHCE cells; experiment: Cytotoxicity assay (trypan blue staining) in TiHCE cells; type: cell-based, Pseudomonas aeruginosa; details: 3 h
Procedure: To assess protective activity of against bacterial invasion, high-calcium treated TiHCE cells were incubated with P. aeruginosa clinical isolate 6294 (40 μl/well; 10^6 cfu/ml in crude lysates/lysate fractions versus KBM control for 3 h or 10^8 cfu/ml in peptide-containing saline versus no-peptide saline control for 2 h), followed by gentamicin treatment (200 μg/ml for 1 h). Viable intracellular bacteria was collected with 0.25% Triton-X in PBS (100 μl/well) and quantified by plating on TSA. To assay protection against bacterial cytotoxicity, P. aeruginosa clinical isolate 6206 was used instead (40 μl/well; 10^6 cfu/ml for 3 h). Dead cells were quantified by Trypan-blue (0.04%) staining.

[4] = test system: human corneal epithelial cells (TiHCE); experiment: Effect of peptide treatment alone on epithelial cells; type: cell-based
[5] = test system: cystic fibrosis isolate 2192; details: Pseudomonas aeruginosa, 3 h, 200 μg/ml
Procedure: as §3, §4

[6] = test system: Streptococcus pyogenes (ATCC 19615); type: cell-based; details: 200 μg/mL, 3 h
Procedure: (§5) Telomerase-immortalized human corneal epithelial cells (TiHCE) were cultured as described (Robertson D M et al., 2005 Invest Ophthalmol Vis Sci. 46:470-478). Crude lysates of media-treated and human tear fluid-treated cells were collected by freeze-thawing in KBM or saline (for assays) or 10 mM Tris-HCl (pH 8.5) (for mass spectrometry). Serial fractionation of lysates was performed using centrifugal filters with cutoffs at ˜100, ˜10 and ˜3 kDa (Millipore). […] Synthetic peptides of hKRT6A were obtained from Biomatik at a purity of >95%. Antimicrobial activity against Pseudomonas aeruginosa clinical and laboratory isolates, as well as ATCC strains of Escherichia coli, Enterococcus faecalis, Serratia marcescens, Staphylococcus epidermidis, Staphylococcus aureus, Streptococcus pyogenes and Candida albicans (˜10^6 cfu/ml each) were evaluated by viable counts at 3 h. […] Statistical analysis between two groups was performed using Student's t-Test.
as §2

[7] = test system: Staphylococcus aureus (ATCC 29213); experiment: Antimicrobial spectrum analysis; type: cell-based; details: 200 μg/mL, 3 h
Procedure: as §5, §2

[8] = test system: Staphylococcus epidermidis (ATCC 12228); experiment: Antimicrobial spectrum analysis; type: cell-based; details: 200 μg/mL, 3 h
Procedure: as §1, §2

[9] = test system: Enterococcus faecalis (ATCC 51188); experiment: Antimicrobial spectrum analysis; type: cell-based; details: 200 μg/mL, 3 h
Procedure: as §1, §2

[10] = test system: Escherichia coli (ATCC 25922); experiment: Antimicrobial spectrum analysis; type: cell-based; details: 200 μg/mL, 3 h
Procedure: as §1, §2

[11] = test system: Candida albicans (ATCC 90028); experiment: Antimicrobial spectrum analysis; type: cell-based; details: 200 μg/mL, 3 h
Procedure: as §1, §2

[12] = test system: Serratia marcescens (ATCC 43862); experiment: Antimicrobial spectrum analysis; type: cell-based; details: 200 μg/mL, 3 h
Procedure: as §3, §4

[13] = Bactericidal effect of phosphorylated vs non-phosphorylated 19-mer (FIG. 6); type: cell-based
Text: Synthetic 19-mer KDAMP peptides were synthesized with or without tyrosine phosphorylation. The bactericidal effect of the peptides was compared.

Question: What does the source list for “RAIGGGLSSVGGGSSTIKY [19mer, RAIGGGLSSVGGGSSTIKY]”?
Answer: reduced viability [1]: 99.7%; reduced viability [2]: 97.5%; reduced viability (laboratory strain PAO1): 96.1%; reduced viability (laboratory strain PA14): 98.7%; protection against bacterial induced cytotoxicity compared to controls [3]: 85.1%; impact of peptide treatment alone on epithelial cells (morphology, trypan blue exclusion) [4]: not visibly impacted; reduced viability [5]: 96.9%

Question: What does the source list for “AIGGGLSSVGGGSSTIK [17mer, AIGGGLSSVGGGSSTIK]”?
Answer: susceptibility (in words) [6]: not susceptible; activity (in words) [7]: neither the 19- nor the 17mer peptide was active; activity (in words) [8]: neither the 19- nor the 17mer peptide was active; activity (in words) [9]: neither the 19- nor the 17mer peptide was active; activity (in words) [10]: neither the 19- nor the 17mer peptide was active; activity (in words) [11]: neither the 19- nor the 17mer peptide was active; activity (in words) [12]: neither the 19- nor the 17mer peptide was active

Question: For “RAIGGGLSSVGGGSSTIK(phospho-Y) (RAIGGGLSSVGGGSSTIK[pY]) [phosphorylated 19-mer]”, which “bactericidal activity compared with the non-phosphorylated 19-mer” value [13] is on record?
Answer: significantly increased bactericidal activity

From US9545461B2, “Anti-microbial peptides and methods of use thereof” (priority 2011, dated 2017)
